# Laboratory results: patent US20140045806A1 (priority 2012, published 2014)
# Like-named read-outs stand apart in the source and are kept apart here. Marks after values point to notes of the source that are not given here.
# What was measured:
# postmenopausal women = assay: ERC-210 phase III trial, MENQOL questionnaire (sexual domain and summary score); format: in vivo; conditions: for MENQOL sexual domain, average percentage of change from baseline, percentages of the three DHEA doses combined: 12 weeks; for MENQOL Avoiding intimacy, average % change from baseline to Week 12 in severity score over placebo / MENQOL Sexual desire, average % change from baseline to Week 12 in severity score over placebo / MENQOL Vaginal dryness at sexual activity, average % change from baseline to Week 12 in severity score over placebo: average of the 3 DHEA doses
# Description: The example below is intended only to illustrate a particular embodiment of the present invention and is not meant to limit the scope of the invention in any manner. This study (ERC-210) is a phase III, prospective, multicentre, randomized, placebo-controlled, and double-blind trial. […] The DHEA ovules or suppositories (Vaginorm™) containing prasterone in a lipophilic base were manufactured by Recipharm, Karlskoga, Sweden. The study was divided into two phases, namely screening followed by a treatment period of 12 weeks. The protocol was approved by the Institutional Review Board of the Centre Hospitalier de I'Université Laval (Quebec City, Canada), McGill University (Montreal, Canada), Ethica (Montreal, Canada), Eastern Virginia Medical School (Norfolk, Va., USA) and the Western Institutional Review Board (Los Angeles, USA).
# The inclusion and exclusion criteria were as described in (Labrie, Archer et al. 2009b). A written informed consent was obtained from all subjects prior to the performance of any study-related procedure. […] A partial gynecological examination was performed to evaluate the aspect of the mucosa and tolerance to the medication on day 1 and at all visits. The standard laboratory tests, namely hematology (including complete blood count and coagulation), blood chemistry and urinalysis were performed at screening, day 1 and at all visits. Summary tabulations were prepared displaying the number of observations, mean or geometric mean as appropriate, SD; SEM, 95% two-sided CI; median, minimum, and maximum for continuous variables; and the number and percentage per category for categorical data. Statistical analyses were performed at the two-sided significance level of 0.05 unless otherwise stated. […] The endpoints for analysis consisted of the following: desire/interest, arousal and orgasm were self-rated by the women at screening, at day 1, and at week 4, 8 and 12 using the ASF and MENQOL questionnaires. Baseline was defined as the value on day 1, obtained before first use of the study treatment, and change from baseline to week 12 was calculated for each participant for each domain endpoint. The analysis comparing each dose of DHEA to placebo was performed by analysis of covariance, with the baseline value used as the covariate. Missing values were replaced by the last observation made.
# The three questions covered by the sexual domain of the MENQOL questionnaire are change in sexual desire, intimacy avoidance and vaginal dryness during sexual activity. In our previous publication (Labrie, Archer et al. 2009a), only women having a score value at baseline and week 12 were used in the calculations while the present evaluation carries forward the last value obtained after baseline when data at week 12 are missing. […] Since the number of women is as low as 12 in some groups for some parameters after the distribution is made between women with and without MS, the calculations have also been performed with the combination of the three prasterone doses, although the number of women remains low in the corresponding placebo group.
# vaginal nerve fibers = conditions: rat, lamina propria and muscularis, cited from earlier work
# [1] = 0.25% DHEA intravaginal daily 12 weeks, MS pain at sexual activity at baseline
# [2] = 0.5% DHEA intravaginal daily 12 weeks, MS pain at sexual activity at baseline
# [3] = 0.5% DHEA intravaginal daily 12 weeks, all subjects (ITT)
# [4] = 1.0% DHEA intravaginal daily 12 weeks, no MS pain at sexual activity at baseline
# [5] = Pool 3 Doses DHEA intravaginal daily 12 weeks, MS pain at sexual activity at baseline
# [6] = Pool 3 Doses DHEA intravaginal daily 12 weeks, MS pain at sexual activity at baseline, listed as prasterone
# [7] = Pool 3 Doses DHEA intravaginal daily 12 weeks, all subjects (ITT)
# [8] = Pool 3 Doses DHEA intravaginal daily 12 weeks, all subjects (ITT), listed as prasterone
# [9] = Pool 3 Doses DHEA intravaginal daily 12 weeks, no MS pain at sexual activity at baseline
# [10] = Pool 3 Doses DHEA intravaginal daily 12 weeks, no MS pain at sexual activity at baseline, listed as prasterone
smiles,measurement,setting,value
"C[C@]12CC[C@H](O)CC1=CC[C@@H]1[C@@H]2CC[C@]2(C)C(=O)CC[C@@H]12 [DHEA, (3β)-3-Hydroxyandrost-5-en-17-one]","MENQOL Avoiding intimacy (Q 29) severity score, average % change from baseline to Week 12 (decreased from baseline)",postmenopausal women; [1],41%
same,"MENQOL SUMMARY SCORE of the four domains, average % change from baseline to Week 12 (decreased from baseline)",postmenopausal women; [1],24%**
same,"MENQOL Sexual desire (Q 27) severity score, average % change from baseline to Week 12 (decreased from baseline)",postmenopausal women; [1],48%
same,"MENQOL Vaginal dryness during intercourse (Q28) severity score, average % change from baseline to Week 12 (decreased from baseline)",postmenopausal women; [1],45%
same,"MENQOL SUMMARY SCORE of the four domains, average % change from baseline to Week 12 (decreased from baseline)","postmenopausal women; 0.25% DHEA intravaginal daily 12 weeks, all subjects (ITT)",24%**
same,"MENQOL SUMMARY SCORE of the four domains, average % change from baseline to Week 12 (decreased from baseline)","postmenopausal women; 0.25% DHEA intravaginal daily 12 weeks, no MS pain at sexual activity at baseline",25%*
same,"MENQOL Avoiding intimacy (Q 29) severity score, average % change from baseline to Week 12 (decreased from baseline)",postmenopausal women; [2],43%
same,"MENQOL SUMMARY SCORE of the four domains, average % change from baseline to Week 12 (decreased from baseline)",postmenopausal women; [2],19%
same,"MENQOL Sexual desire (Q 27) severity score, average % change from baseline to Week 12 (decreased from baseline)",postmenopausal women; [2],36%
same,"MENQOL SUMMARY SCORE of the four domains, average % change from baseline to Week 12 (decreased from baseline)",postmenopausal women; [3],18%
same,"MENQOL Sexual desire (Q 27) severity score, average % change from baseline to Week 12 (decreased from baseline)",postmenopausal women; [3],31%
same,"MENQOL SUMMARY SCORE of the four domains, average % change from baseline to Week 12 (decreased from baseline)","postmenopausal women; 0.5% DHEA intravaginal daily 12 weeks, no MS pain at sexual activity at baseline",12%
same,"MENQOL SUMMARY SCORE of the four domains, average % change from baseline to Week 12 (decreased from baseline)","postmenopausal women; 1.0% DHEA intravaginal daily 12 weeks, MS pain at sexual activity at baseline",22%*
same,"MENQOL SUMMARY SCORE of the four domains, average % change from baseline to Week 12 (decreased from baseline)","postmenopausal women; 1.0% DHEA intravaginal daily 12 weeks, all subjects (ITT)",20%*
same,"MENQOL Avoiding intimacy (Q 29) severity score, average % change from baseline to Week 12 (decreased from baseline)",postmenopausal women; [4],27%
same,"MENQOL SUMMARY SCORE of the four domains, average % change from baseline to Week 12 (decreased from baseline)",postmenopausal women; [4],14%
same,"MENQOL Sexual desire (Q 27) severity score, average % change from baseline to Week 12 (decreased from baseline)",postmenopausal women; [4],35%
same,"Changes over placebo, sum of the three questions of the MENQOL sexual function domain",postmenopausal women; MS pain group,62.8%
same,"Specific (above placebo) effect in MENQOL, global increase over placebo",postmenopausal women; MS pain group,0.78 fold
same,"MENQOL sexual domain, average percentage of change from baseline, percentages of the three DHEA doses combined",postmenopausal women; MS pain group,49.0%
same,"MENQOL Avoiding intimacy (Q 29) severity score, average % change from baseline to Week 12 (decreased from baseline)",postmenopausal women; [5],46.4%*
same,"MENQOL SUMMARY SCORE of the four domains, average % change from baseline to Week 12 (decreased from baseline)",postmenopausal women; [5],21.4%*
same,"MENQOL Sexual desire (Q 27) severity score, average % change from baseline to Week 12 (decreased from baseline)",postmenopausal women; [5],45.0%
same,"MENQOL Sexual domain severity score, average % change from baseline to Week 12 (decreased from baseline)",postmenopausal women; [5],48.4%**
same,"MENQOL Vaginal dryness during intercourse (Q28) severity score, average % change from baseline to Week 12 (decreased from baseline)",postmenopausal women; [5],52.4%**
same,"MENQOL Avoiding intimacy (Q 29) severity score, average % change from baseline to Week 12 (decreased from baseline)",postmenopausal women; [6],46.4%
same,"MENQOL SUMMARY SCORE of the four domains, average % change from baseline to Week 12 (decreased from baseline)",postmenopausal women; [6],21.4%
same,"MENQOL Sexual desire (Q 27) severity score, average % change from baseline to Week 12 (decreased from baseline)",postmenopausal women; [6],45%
same,"MENQOL Sexual domain severity score, average % change from baseline to Week 12 (decreased from baseline)",postmenopausal women; [6],48.4%
same,"MENQOL Vaginal dryness during intercourse (Q28) severity score, average % change from baseline to Week 12 (decreased from baseline)",postmenopausal women; [6],52.4%
same,"MENQOL Avoiding intimacy (Q 29) severity score, average % change from baseline to Week 12 (decreased from baseline)",postmenopausal women; [7],44.8%**
same,"MENQOL SUMMARY SCORE of the four domains, average % change from baseline to Week 12 (decreased from baseline)",postmenopausal women; [7],20.8%**
same,"MENQOL Sexual desire (Q 27) severity score, average % change from baseline to Week 12 (decreased from baseline)",postmenopausal women; [7],44.0%**
same,"MENQOL Sexual domain severity score, average % change from baseline to Week 12 (decreased from baseline)",postmenopausal women; [7],46.7%**
same,"MENQOL Vaginal dryness during intercourse (Q28) severity score, average % change from baseline to Week 12 (decreased from baseline)",postmenopausal women; [7],49.9%**
same,"MENQOL Avoiding intimacy (Q 29) severity score, average % change from baseline to Week 12 (decreased from baseline)",postmenopausal women; [8],44.8%
same,"MENQOL SUMMARY SCORE of the four domains, average % change from baseline to Week 12 (decreased from baseline)",postmenopausal women; [8],20.8%
same,"MENQOL Sexual desire (Q 27) severity score, average % change from baseline to Week 12 (decreased from baseline)",postmenopausal women; [8],44%
same,"MENQOL Sexual domain severity score, average % change from baseline to Week 12 (decreased from baseline)",postmenopausal women; [8],46.7%
same,"MENQOL Vaginal dryness during intercourse (Q28) severity score, average % change from baseline to Week 12 (decreased from baseline)",postmenopausal women; [8],49.9%
same,"MENQOL Avoiding intimacy (Q 29) severity score, average % change from baseline to Week 12 (decreased from baseline)",postmenopausal women; [9],36.6%*
same,"MENQOL SUMMARY SCORE of the four domains, average % change from baseline to Week 12 (decreased from baseline)",postmenopausal women; [9],18.0%*
same,"MENQOL Sexual desire (Q 27) severity score, average % change from baseline to Week 12 (decreased from baseline)",postmenopausal women; [9],40.2%**
same,"MENQOL Sexual domain severity score, average % change from baseline to Week 12 (decreased from baseline)",postmenopausal women; [9],39.2%**
same,"MENQOL Vaginal dryness during intercourse (Q28) severity score, average % change from baseline to Week 12 (decreased from baseline)",postmenopausal women; [9],38.2%**
same,"MENQOL Avoiding intimacy (Q 29) severity score, average % change from baseline to Week 12 (decreased from baseline)",postmenopausal women; [10],36.6%
same,"MENQOL SUMMARY SCORE of the four domains, average % change from baseline to Week 12 (decreased from baseline)",postmenopausal women; [10],18%
same,"MENQOL Sexual desire (Q 27) severity score, average % change from baseline to Week 12 (decreased from baseline)",postmenopausal women; [10],40.2%
same,"MENQOL Sexual domain severity score, average % change from baseline to Week 12 (decreased from baseline)",postmenopausal women; [10],39.2%
same,"MENQOL Vaginal dryness during intercourse (Q28) severity score, average % change from baseline to Week 12 (decreased from baseline)",postmenopausal women; [10],38.2%
same,"MENQOL Avoiding intimacy, average % change from baseline to Week 12 in severity score over placebo",postmenopausal women; MS PAIN at baseline,21.4%*
same,"MENQOL Sexual desire, average % change from baseline to Week 12 in severity score over placebo",postmenopausal women; MS PAIN at baseline,18.0%
same,"MENQOL Vaginal dryness at sexual activity, average % change from baseline to Week 12 in severity score over placebo",postmenopausal women; MS PAIN at baseline,23.4%**
same,"MENQOL Avoiding intimacy, average % change from baseline to Week 12 in severity score over placebo",postmenopausal women; NO MS PAIN at baseline,27.4%*
same,"MENQOL Sexual desire, average % change from baseline to Week 12 in severity score over placebo",postmenopausal women; NO MS PAIN at baseline,34.1%**
same,"MENQOL Vaginal dryness at sexual activity, average % change from baseline to Week 12 in severity score over placebo",postmenopausal women; NO MS PAIN at baseline,38.2%**
same,"MENQOL Avoiding intimacy, average % change from baseline to Week 12 in severity score over placebo",postmenopausal women; TOTAL (all women),22.8%**
same,"MENQOL Sexual desire, average % change from baseline to Week 12 in severity score over placebo",postmenopausal women; TOTAL (all women),22.0%**
same,"MENQOL Vaginal dryness at sexual activity, average % change from baseline to Week 12 in severity score over placebo",postmenopausal women; TOTAL (all women),26.9%**
same,"Changes over placebo, sum of the three questions of the MENQOL sexual function domain",postmenopausal women; no MS pain group,99.7%
same,"Specific (above placebo) effect in MENQOL, global increase over placebo",postmenopausal women; non MS pain group,5.5 fold
same,"MENQOL sexual domain, average percentage of change from baseline, percentages of the three DHEA doses combined",postmenopausal women; non MS pain group,33.3%
same,"Higher specificity of correction of sexual dysfunction (over placebo), MENQOL",postmenopausal women; women with no MS pain versus MS pain at baseline,6.8 fold
same,Density of vaginal nerve fibers,vaginal nerve fibers,increases the density of nerve fibers
same,Density of vaginal nerve fibers,vaginal nerve fibers; listed as prasterone,stimulatory effect
